Results taken from US11254670B2 (NUVATION BIO INC., priority 2019, dated 2022).

Experiments:
[1] = biological target: adenosine A2a (human) membrane (Homo sapiens (Human), UniProt P29274); assay: A2A adenosine receptor radioligand binding assay ([3H] CGS-21680); details: radioligand [3H] CGS-21680 6 nM
Protocol: A second A2A adenosine receptor radioligand binding assay protocol was used. The protocol used adenosine A2a (human) membrane (PerkinElmer RBHA2AM400UA) at a concentration of 5 μg/well/100 μl and the radioligand [3H] CGS-21680 (Cat No. PerkinElmer-NET1021250UC) at a final concentration of 6 nM. Testing compounds were diluted with DMSO to make 8-point 4-fold serial dilution, starting at 0.2 mM. CGS-15943 was the reference compound. 1 μl of compounds/high control/low control was transferred to the assay plate according to a plate map, followed by 100 μl of membrane stocks and 100 μl of radioligand, in assay buffer (50 mM Tris-HCl, 10 mM MgCl2, 1 mM EDTA, pH 7.4). The plate was sealed and incubated at RT for 2 hours. Unifilter-96 GF/C filter plates (Perkin Elmer Cat #6005174) were soaked with 50 μl of 0.3% PEI per well for at least 0.5 hour at room temperature. When the binding assays were completed, the reaction mixtures were filtered through GF/C plates using Perkin Elmer Filtermate Harvester, and each plate washed 4 times with cold wash buffer (50 mM Tris-HCl, 154 mM NaCl, pH 7.4). The filter plates were dried for 1 hour at 50 degrees. After drying, the bottom of the filter plate wells was sealed, 50 μl of Perkin Elmer Microscint 20 cocktail was added, and the top of the filter plate was sealed. ^3H trapped on the filter was counted using Perkin Elmer MicroBeta2 Reader. The data were analyzed with GraphPad Prism 5 to obtain binding IC50 values. The “Inhibition [% Control]” was calculated using the equation: % Inh=(1−Background subtracted Assay value/Background subtracted HC value)*100, where HC is high control.

[2] = biological target: adenosine A1 (human) membrane (Homo sapiens (Human), UniProt P30542); assay: A1 adenosine receptor radioligand binding assay ([3H] DPCPX); details: radioligand [3H] DPCPX 1 nM, compound 200 nM
Protocol: A second A1 adenosine receptor radioligand binding assay protocol was used. The protocol used adenosine A1 (human) membrane (PerkinElmer ES-010-M400UA) at a concentration of 2.5 μg/well/100 μl and the radioligand [3H] DPCPX (Cat No. PerkinElmer-NET974250UC) at a final concentration of 1 nM. Testing compounds were tested at a final concentration of 200 nM. CGS-15943, the reference compound, was tested in an 8-point 4-fold serial dilution, starting at a top concentration of 1 μM. 1 μl of compounds/high control/low control was transferred to the assay plate according to a plate map, followed by 100 μl of membrane stocks and 100 μl of radioligand, in assay buffer (25 mM HEPES, 5 mM MgCl2, 1 mM CaCl2, 100 mM NaCl, pH 7.4). The plate was sealed and incubated at RT for 1 hour. Unifilter-96 GF/C filter plates (Perkin Elmer Cat #6005174) were soaked with 50 μl of 0.3% PEI per well for at least 0.5 hour at room temperature. When the binding assays were completed, the reaction mixtures were filtered through GF/C plates using Perkin Elmer Filtermate Harvester, and each plate washed 4 times with cold wash buffer (25 mM HEPES, 5 mM MgCl2, 1 mM CaCl2, 100 mM NaCl, pH 7.4). The filter plates were dried for 1 hour at 50 degrees. After drying, the bottom of the filter plate wells was sealed, 50 μl of Perkin Elmer Microscint 20 cocktail was added, and the top of the filter plate was sealed. ^3H trapped on the filter was counted using Perkin Elmer MicroBeta2 Reader. The data were analyzed with GraphPad Prism 5 to obtain binding IC50 values for the reference compound. The “Inhibition [% Control]” was calculated using the equation: % Inh=(1−Background subtracted Assay value/Background subtracted HC value)*100, where HC is high control.

[3] = biological target: human recombinant adenosine A1 receptor (Homo sapiens (Human), UniProt P30542); assay: cAMP assay (Assay 2), HEK-293 cells expressing A1 receptor; format: cell-based
Protocol: (§1) The functional activity of compounds was tested using Assay 2, below, to detect the presence of cAMP. Assay 1 is an alternative assay for this purpose. Activation of G-protein coupled receptors (such as A2A) results in activation of adenylyl cyclase which converts ATP into cAMP which is used as a downstream signaling molecule. Therefore, molecules which act as GPCR (or specifically A2A receptor) antagonists cause a decrease in intracellular cAMP concentration.
(§2) Assay 2 (Table B2): This assay used HEK-293 cells expressing human recombinant adenosine A2A receptor (or, alternatively, A1 receptor) that were grown prior to the test in media without antibiotic. 100 nL of test articles at 100× of final concentration were transferred to assay plate by Echo. Cells were washed twice with 5 mL of PBS and 10 μL of cells were mixed with 5 mL PBS. After aspirating the PBS and adding 1.5 mL versine, cells were incubated at 37° C. for 2-5 min. After centrifugation, 4 mL of medium was added and adjusted cell density to 5,000 cells/well with Stimulation Buffer. 10 μL of cells were aliquoted to the assay plate, centrifuged at 1000 rpm for 1 minute, and incubated for 60 minutes at room temperature. 5 μL 4× Eu-cAMP tracer solution and 5 μL 4× Ulight™-anti-cAMP solution were added to assay plate, followed by centrifugation and 60-minute incubation at room temperature. Plates were read on EnVision.

[4] = biological target: human recombinant adenosine A2A receptor (Homo sapiens (Human), UniProt P29274); assay: cAMP assay (Assay 2), HEK-293 cells expressing A2A receptor; format: cell-based; details: HEK-293 cells expressing human recombinant adenosine A2A receptor
Protocol: as §1, §2

activated human PBMCs = assay: Human T cell activation assay (TNF-α and IFN-γ ELISA); format: cell-based; details: activated human T cells in vitro, NECA 1 μM or 5 μM
Protocol: Human T Cell Activation Assay: Fresh human blood was diluted with the same volume of PBS and the buffy coat containing peripheral blood mononuclear cells (PBMCs) were prepared and resuspended in culture medium at a density of 2×10^6/mL. 2×10^5 PBMCs (in 100 μL) were plated to each well of a 96-well flat bottom plate. 25 μL of 8× final concentration of 10-fold serial diluted or single concentration compounds was added to indicated wells and incubated for 30 mins in 37° C./5% CO2. 25 μL of 8× final concentration of NECA (1 μM or 5 μM) was added to selected wells and incubated for 30 min in 37° C./5% CO2. Beads included in T cell activation/expansion kit (Miltenyi biotec Cat #130-091-441) at a bead-to-cell ratio of 1:6 in 50 μL were added to all wells with the final concentration of DMSO at 0.1% and final volume at 200 μL. 60 μL of supernatant post 24 hr and 48 hr incubation was collected for TNF-α and IFN-γ concentration evaluation using TNF-α ELISA ready-set-go kit (eBioscience, Cat #88-7346-77) and IFN-γ ELISA ready-set-go kit (eBioscience, Cat #88-7316-77), respectively.

Sequence of human recombinant adenosine A2A receptor (P29274 whole entry): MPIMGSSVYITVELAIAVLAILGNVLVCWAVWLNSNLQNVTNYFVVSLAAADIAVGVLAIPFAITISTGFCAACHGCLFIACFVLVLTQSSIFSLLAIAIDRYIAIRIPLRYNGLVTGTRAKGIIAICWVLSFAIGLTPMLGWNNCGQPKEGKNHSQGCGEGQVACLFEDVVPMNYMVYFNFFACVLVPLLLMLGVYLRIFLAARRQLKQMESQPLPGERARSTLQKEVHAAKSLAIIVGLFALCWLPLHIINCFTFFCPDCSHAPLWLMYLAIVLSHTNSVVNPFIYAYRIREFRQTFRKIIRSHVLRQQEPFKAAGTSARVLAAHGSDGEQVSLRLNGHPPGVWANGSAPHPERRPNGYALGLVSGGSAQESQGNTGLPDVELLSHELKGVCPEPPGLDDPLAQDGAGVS
Sequence of adenosine A2a (human) membrane (P29274 whole entry): as above
Sequence of adenosine A1 (human) membrane (P30542 whole entry): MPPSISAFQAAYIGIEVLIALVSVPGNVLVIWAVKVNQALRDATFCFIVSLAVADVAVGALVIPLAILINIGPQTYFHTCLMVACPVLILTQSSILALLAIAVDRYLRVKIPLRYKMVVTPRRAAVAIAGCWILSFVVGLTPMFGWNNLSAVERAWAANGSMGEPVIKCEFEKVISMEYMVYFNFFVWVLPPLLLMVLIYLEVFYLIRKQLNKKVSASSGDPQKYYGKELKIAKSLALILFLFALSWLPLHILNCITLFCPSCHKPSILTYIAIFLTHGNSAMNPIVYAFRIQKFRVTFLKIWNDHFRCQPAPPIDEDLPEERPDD
Sequence of human recombinant adenosine A1 receptor (P30542 whole entry): as above

IC50 [1]	inhibition at 0.2 µM [2]	IC50 [3]	IC50 [4]	Structure (SMILES)	reversal of NECA-mediated suppression of TNF-α secretion (activated human PBMCs; FIG. 1)	reversal of NECA-mediated suppression of IFN-γ secretion (activated human PBMCs; FIG. 2)
5.4 nM	61%		213 nM	N#Cc1cccc(-c2nc3[nH]ccc(=O)c3cc2-c2ccc3ncccc3c2)c1 [Compound 77, 3-(5-oxo-3-(quinolin-6-yl)-5,8-dihydro-1,8-naphthyridin-2-yl)benzonitrile]		
49 nM	81%			N#Cc1cccc(-c2nc3[nH]ccc(=O)c3cc2-c2ccc3[nH]ncc3c2)c1 [Compound 78, 3-(3-(1H-indazol-5-yl)-5-oxo-5,8-dihydro-1,8-naphthyridin-2-yl)benzonitrile]		
9.5 nM	85%			N#Cc1cccc(-c2nc3[nH]ccc(=O)c3cc2-c2ccc3ncsc3c2)c1 [Compound 79, 3-(3-(benzo[d]thiazol-6-yl)-5-oxo-5,8-dihydro-1,8-naphthyridin-2-yl)benzonitrile]		
17 nM	79%			N#Cc1cccc(-c2nc3[nH]ccc(=O)c3cc2-c2ccc3[nH]cnc3c2)c1 [Compound 80, 3-(3-(1H-benzo[d]imidazol-5-yl)-5-oxo-5,8-dihydro-1,8-naphthyridin-2-yl)benzonitrile]		

Second part, the compound before the results:

Structure (SMILES)	IC50 [1]	inhibition at 0.2 µM [2]	IC50 [3]	IC50 [4]	reversal of NECA-mediated suppression of TNF-α secretion (activated human PBMCs; FIG. 1)	reversal of NECA-mediated suppression of IFN-γ secretion (activated human PBMCs; FIG. 2)
CC(C)n1cc(-c2cc3c(=O)cc[nH]c3nc2-c2ccccc2)ccc1=O [Compound 1, 6-(1-isopropyl-6-oxo-1,6-dihydropyridin-3-yl)-7-phenyl-1,8-naphthyridin-4(1H)-one]	2.6 nM	98%	3.2 nM	33.8 nM	reversed NECA-mediated suppression	reversed NECA-mediated suppression
Cc1cc(-c2cc3c(=O)cc[nH]c3nc2-c2cccc(C#N)c2C)cc(Cl)n1 [Compound 3, 3-(3-(2-chloro-6-methylpyridin-4-yl)-5-oxo-5,8-dihydro-1,8-naphthyridin-2-yl)-2-methylbenzonitrile]	2600 nM	7%				
Cc1cc(-c2cc3c(=O)cc[nH]c3nc2-c2cccc(C#N)c2)cc(Cl)n1 [Compound 6, 3-(3-(2-chloro-6-methylpyridin-4-yl)-5-oxo-5,8-dihydro-1,8-naphthyridin-2-yl)benzonitrile]	113 nM	26%				
CC(C)n1cc(-c2cc3c(=O)cc[nH]c3nc2-c2ccccc2)cc(Cl)c1=O [Compound 7, 6-(5-chloro-1-isopropyl-6-oxo-1,6-dihydropyridin-3-yl)-7-phenyl-1,8-naphthyridin-4(1H)-one]	3.5 nM		5.8 nM	11 nM		
Cc1cc(-c2cc3c(=O)cc[nH]c3nc2-c2ccccc2)cc(Cl)c1NS(C)(=O)=O [Compound 45, N-(2-chloro-6-methyl-4-(5-oxo-2-phenyl-5,8-dihydro-1,8-naphthyridin-3-yl)phenyl)methanesulfonamide]		34%		> 10000 nM		
Cc1c(C#N)cccc1-c1nc2[nH]ccc(=O)c2cc1-c1ccc2ncccc2c1 [Compound 55, 2-methyl-3-(5-oxo-3-(quinolin-6-yl)-5,8-dihydro-1,8-naphthyridin-2-yl)benzonitrile]	179 nM	5%				
Cn1cc(-c2cc3c(=O)cc[nH]c3nc2-c2ccccc2)cc(Cl)c1=O [Compound 75]		82%		195 nM		
Cn1cc(-c2cc3c(=O)cc[nH]c3nc2-c2ccccc2)ccc1=O [Compound 76]		92%		156 nM		
